Here are results for 3 compounds from US5723464A, “Piperazine derivatives” (American Home Products Corporation, priority 1994, dated 1998).

What is called IC50 is the concentration that gives 50% inhibition.

Assay [1] deals with T1, 5-HT1A receptor (Rattus norvegicus, UniProt P19327).
T1 sequence (P19327 1-422): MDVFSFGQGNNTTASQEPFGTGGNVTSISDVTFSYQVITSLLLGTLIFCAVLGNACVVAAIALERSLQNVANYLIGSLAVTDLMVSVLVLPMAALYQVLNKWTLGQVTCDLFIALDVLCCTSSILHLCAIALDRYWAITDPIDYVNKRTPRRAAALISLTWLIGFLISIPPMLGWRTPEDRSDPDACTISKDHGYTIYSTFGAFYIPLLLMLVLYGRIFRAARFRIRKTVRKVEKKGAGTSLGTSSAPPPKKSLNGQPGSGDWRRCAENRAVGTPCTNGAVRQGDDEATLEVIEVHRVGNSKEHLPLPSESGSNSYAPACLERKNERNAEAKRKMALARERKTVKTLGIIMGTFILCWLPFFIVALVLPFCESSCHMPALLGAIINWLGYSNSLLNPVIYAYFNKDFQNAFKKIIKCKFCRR
The assay can be described thus: 5-HT1A receptor binding affinity in rat hippocampal membrane homogenate. Also noted: in rat hippocampal membrane homogenate; from tissue; host or cells: rat hippocampal membrane homogenate. The following applies: for IC50: rat hippocampal membrane homogenate; for Ratio 5HT1A / α1 (binding selectivity): ratio of 5-HT1A binding to α1 binding. The procedure: The compounds were tested for 5-HT1A binding affinity (column 2) in rat hippocampal membrane homogenate by the method of B. S. Alexander and M. D. Wood, J. Pharm. Pharmacol., 1988, 40, 888-891.

Assay [2] addresses α1 receptor. The assay can be described thus: α1 receptor binding affinity. The procedure:
The compounds were tested for α1 binding affinity (column 3) by the procedure of A. L. Marrow et al, Mol. Pharmacol., 1986, 29, 321.

In assay [3] the target is T1, 5-HT1A receptor. The assay can be described thus: Oral 5-HT1A receptor antagonist activity: antagonism of 8-OH-DPAT syndrome in rats. Type of assay: in vivo. The procedure: 5-HT1A receptor antagonist activity (columns 5 and 6) is assessed by the ability of the selective 5-HT1A receptor agonist, 8-OH-DPAT, to induce the `8-OH-DPAT syndrome` in rats characterised by extended flat body posture, forepaw treading and hyperlocomotion. The 8-OH-DPAT syndrome is scored as present (definite syndrome response) or absent (equivocal or no syndrome response) during the period 0-5 min following intravenous (i.v.) administration of the test agonist via a lateral tail vein.
A range of doses, on a logarithmic scale and encompassing the expected ED50, were chosen for the test agonist following preliminary evaluation. […]
Test antagonists were administered orally (p.o.) 60 min, before i.v. administration of 8-OH-DPAT. ED50 values for 8-OH-DPAT were determined for the different pretreatment groups using the sequential up/down procedure as described above.
The response to the selective 5-HT1A receptor agonist, 8-OH-DPAT, is represented as an ED50 value for induction of the 8-OH-DPAT syndrome, which is determined using the sequential up/down analysis following intravenous administration. 5-HT1A antagonist activity is determined by the ability of the test compound to antagonise the response to 8-OH-DPAT, i.e. to increase the ED50 for induction of the 8-OH-DPAT syndrome compared with vehicle pretreatment. […]

As to `C[C@H](CN1CCN(c2cccc3[nH]ccc23)CC1)N(C(=O)C1CCCCC1)c1ccccn1` [Compound A1, (R)-N-(1-methyl-2-(4-indolyl-1-piperazinyl)ethyl)-N-(2-pyridyl)-cyclohexanecarboxamide], in assay [1], the half-maximal inhibitory concentration (IC50) is 4.3 nM and the “Ratio 5HT1A / α1 (binding selectivity)” value amounted to 564.4.

Turning to `C[C@H](CN(C(=O)C1CCCCC1)c1ccccn1)N1CCN(c2cccc3[nH]ccc23)CC1` [Compound A2, (R)-N-(2-methyl-2-(4-indolyl-1-piperazinyl)ethyl)-N-(2-pyridyl)-cyclohexanecarboxamide], in assay [1], the IC50 amounted to 6.8 nM and the “Ratio 5HT1A / α1 (binding selectivity)” value is reported as 142.5.

As for `O=C(C1CCCCC1)N(CCN1CCN(c2cccc3[nH]ccc23)CC1)c1ccccn1` [Compound A3], in assay [2], the IC50 came out at 1020 nM. Further, in assay [1], the “5-HT1A binding affinity (in words)” value is recorded as “good 5-HT1A binding affinity”, the IC50 worked out at 3.2 nM and the “Ratio 5HT1A / α1 (binding selectivity)” value came out at 317.5. Moreover, the “5-HT1A/α1 selectivity (in words)” value in assay [1] (binding affinity at 5-HT1A compared to α1 receptors) is recorded as “good”. Besides, the “5-HT1A antagonist Ratio (ED50 antagonist @ 3mg/kg po)/ED50 vehicle” value in assay [3] (ED50 of 8-OH-DPAT (i.v.) after test compound 3 mg/kg p.o. divided by ED50 after vehicle, rats) came to 34.4. Further, the “5-HT1A antagonist oral activity (in words)” value in assay [3] (oral, compared to compounds of EP-A-512755) is listed as “surprising increase in oral activity as 5-HT1A antagonists”.
